Results taken from patent US20060052346A1, “Nucleoside phosphonate derivatives useful in the treatment of HIV infections” (priority 2004, published 2006).
Read-outs that look alike come from different tables or passages of the source.

System: HIV-1 (NL4-3)
Assay: Plaque reduction assay (drug susceptibility) in HT4-6C cells infected with HIV-1 NL4-3
Assay type: cell-based
Details: for IC50: Human immunodeficiency virus 1, NL43, 72 h
Excerpt: Measurement of Inhibition Effect Against Human Immunodeficiency Virus (HIV)
The compounds of formula 1 protect cells from the cytopathic effects of HIV infection.
Cells. The T-lymphoblastoid cell line CEM was used in this study to propagate HIV. The cells were maintained in RPMI 1640 growth medium supplemented with 10% fetal bovine serum plus antibiotics. The CD4-expressing cell line used for HIV plaque assays, HT4-6C, was made by transforming HeLa cells with the human CD4 gene as described in Chesebro and Wehrly, J. Virology, 62(10), 3779-3788 (1988). These cells were grown in Dulbecco modified eagle medium (DMEM) containing 10% fetal bovine serum plus antibiotics.
Virus propagation. The laboratory strain of HIV-1 (NL4-3) was grown in CEM cells. Virus stocks were prepared from cleared lysates of concentrated infected cells. At peak cytopathic effect (generally 5 days post-infection) culture supernatants were harvested and stored at −80° C. Viral infectivity titers were determined in threefold endpoint dilution assays conducted in CEM cells (six wells per dilution). The 50% tissue culture infective dose (TCID50) was calculated using the Reed and Muench equation.
Plaque titration using HT4-6C. Cells are seeded into 24-well multiwells at 5×10^4 cells per well and incubated overnight at 37° C. in growth medium (DMEM containing 10% fetal bovine serum plus antibiotics). Monolayers were infected with 10-fold dilutions of cell-free NL4-3 virus in 0.2 ml of DMEM and were incubated for 1 h at 37° C. to allow virus adsorption. Following this, 0.8 ml of DMEM containing 5% fetal bovine serum plus antibiotics was added to each well, and the cultures were incubated at 37° C. for 2 to 3 days. The monolayers were fixed with a 10% formaldehyde solution in phosphate-buffered saline and stained with 0.25% crystal violet in order to visualize virus plaques. Individual foci of multinucleated giant cells (plaques) are obvious when this staining procedure was used. Virus titers were evaluated from plaque numbers and were expressed as PFU per milliliter.
Drug susceptibility assays. Plaque reduction assays were performed by infecting monolayers of HT4-6C cells with 100 to 300 PFU of virus per well in 24-well microdilution plates as described above. Half-log concentrations of inhibitor were added to the culture medium (DMEM containing 5% fetal bovine serum plus antibiotics), and cultures were incubated for 3 days at 37° C. prior to fixation and staining as described above. ID50s were derived from plots of percentage of plaque reduction versus inhibitor concentration. See Larder et al., Antimicrob Agents Chemother, 34(3), 436-41 (March 1990).

[1] = plaque reduction, HT4-6C cell monolayers, 100 to 300 PFU of virus per well, 3 days at 37° C., read-out: ID50 (the source's name)
[2] = plaque reduction, HT4-6C cell monolayers, 100 to 300 PFU of virus per well, 3 days at 37° C.

Row | Structure (SMILES) | IC50 [1] [µM] | ID25 [2] [µM] | IC50 (read-out: ID50 (μM)) [µM]
1 | Nc1nc(O)c2ncn(CC3(OCP(=O)(O)O)CC3)c2n1 [Compound 5, ({1-[(2-amino-6-hydroxy-9H-purin-9-yl)methyl]cyclopropyl}oxy)methylphosphonic acid] | ~100 | <10 | –
2 | CC(C)(C)C(=O)OCOP(=O)(COC1(Cn2cnc3c(O)nc(N)nc32)CC1)OCOC(=O)C(C)(C)C [Compound 6, 3-[({1-[(2-amino-6-hydroxy-9H-purin-9-yl)methyl]cyclopropyl}oxy)methyl]-8,8-dimethyl-3,7-dioxo-2,4,6-trioxa-3λ^5-phosphanon-1-yl pivalate] | < 10 | <0.1 | –
3 | Nc1ncc2ncn(CC3(OCP(=O)(O)O)CC3)c2n1 [Compound 9, ({1-[(2-amino-9H-purin-9-yl)methyl]cyclopropyl}oxy)methylphosphonic acid] | > 100 | <10 | –
4 | CC(C)(C)C(=O)OCOP(=O)(COC1(Cn2cnc3cnc(N)nc32)CC1)OCOC(=O)C(C)(C)C [Compound 10, 3-[({1-[(2-amino-9H-purin-9-yl)methyl]cyclopropyl}oxy)methyl]-8,8-dimethyl-3,7-dioxo-2,4,6-trioxa-3λ^5-phosphanon-1-yl pivalate] | – | <0.1 | < 10
5 | CC1CC1(Cn1cnc2cnc(N)nc21)OCP(=O)(O)O (centres unmarked) [Compound 98, ({1-[(2-amino-9H-purin-9-yl)methyl]-2-methylcyclopropyl}oxy)methylphosphonic acid] | > 100 | <200 | –
6 | CC1CC1(Cn1cnc2c(N)ncnc21)OCP(=O)(O)O (centres unmarked) [Compound 103, ({1-[(6-amino-9H-purin-9-yl)methyl]-2-methylcyclopropyl}oxy)methylphosphonic acid] | > 100 | <10 | –
7 | CC1CC1(Cn1cnc2cnc(N)nc21)OCP(=O)(OCOC(=O)C(C)(C)C)OCOC(=O)C(C)(C)C (centres unmarked) [Compound 106, 3-[({1-[(2-amino-9H-purin-9-yl)methyl]-2-methylcyclopropyl}oxy)methyl]-8,8-dimethyl-3,7-dioxo-2,4,6-trioxa-3λ^5-phosphanon-1-yl pivalate] | < 100 | <1.0 | –
